Where two headings read alike, the source gives them in different places.
Assays:
megalin pathway [1] = assay: LMW proteinuria (urinary CC16) in WT mice under 5x-dAA diets; assay type: in vivo; settings: WT C57Bl-6 mice, 3 weeks diet, vs control diet
Protocol: In a second experiment, 5x-D-lysine was compared to regular diet.
(§1) Body weight was recorded before entering the metabolic cages. […] Creatinine clearance was normalized by mouse body weight.

megalin pathway [2] = assay: LMW proteinuria / albuminuria in Ctns KO mice under 5x-dAA diets
Protocol: After 24-h adaptation in metabolic cages, urine was collected during the following 24 h in presence of 0.1% sodium azide and 1x-protease inhibitors (Thermo Scientific). When in metabolic cages, mice had free access to tap water and food. Blood was collected 2 days before starting the treatments and entry into metabolic cages (baseline) and at the sacrifice to obtain serum. Body weight was recorded before entering the metabolic cages. Urine and serum analyses were performed by the veterinary laboratory Appialab Srl (Rome, Italy). Urinary levels of CC16 were measured by the Mouse Clara Cell Protein 16 kit 96 T #EKU03200 (Biomatik) according to manufacturer’s instructions. Serum levels of cystatin-C were measured by the Mouse/Rat Cystatin C Quantitative ELISA #MSCTC0 (R&D Systems). […] Creatinine clearance was normalized by mouse body weight.

[3] = Tolerance of prolonged 5x-dAA diets in mice; settings: ad libitum 5x-supplemented solid diet, approx. 45 mmoles/kg/day
From the text: Ctns knockout mice (C57BL/6 background) were kindly provided by Dr. Corinne Antignac[18]. […] The same increase was set for L- (and D-) lysine.

[4] = Clinical urine and serum analyses in Ctns KO mice under 5x-dAA diets; settings: Ctns KO mice at 8 months of age, 2 months of treatment, mean ± SEM
From the text: We also attempted to further discriminate between luminal (competition for surface megalin binding) and intracellular metabolic effects (see Discussion) by comparing the effects of 5x-L-lysine to its stereoisomer, 5x-D-lysine. Unless stated otherwise, diets were initiated at 6 months-of-age, and mice were studied then euthanized at 8 months-of-age (2-months treatment). This time frame was selected for two reasons. First, in the mouse cystinosis model, this an appropriate window to evaluate the impact on PTC alterations based on changes in kidney cystine accumulation and overall function. […] Second, although primary prevention by earlier intervention (from 2-to-6 months-of-age) better mimics perinatal genetic megalin ablation, thus could be more efficient, secondary intervention (starting at 6 months-of-age), when disease becomes clinically apparent, is more relevant for further translational studies.
as §1

porcine megalin [5] = molecular target: T1, porcine megalin (Sus scrofa, UniProt C0HL13); assay: Surface plasmon resonance: competition for TC:B12 binding to chip-immobilized megalin; settings: for IC50: 10 µg/ml TC:B12 in 0 to 100 mM amino-acid, Biacore; for SPR signal of amino-acid alone on megalin chip: chips exposed to increasing concentrations of amino-acid, no analyte
T1 sequence (C0HL13 26-4652): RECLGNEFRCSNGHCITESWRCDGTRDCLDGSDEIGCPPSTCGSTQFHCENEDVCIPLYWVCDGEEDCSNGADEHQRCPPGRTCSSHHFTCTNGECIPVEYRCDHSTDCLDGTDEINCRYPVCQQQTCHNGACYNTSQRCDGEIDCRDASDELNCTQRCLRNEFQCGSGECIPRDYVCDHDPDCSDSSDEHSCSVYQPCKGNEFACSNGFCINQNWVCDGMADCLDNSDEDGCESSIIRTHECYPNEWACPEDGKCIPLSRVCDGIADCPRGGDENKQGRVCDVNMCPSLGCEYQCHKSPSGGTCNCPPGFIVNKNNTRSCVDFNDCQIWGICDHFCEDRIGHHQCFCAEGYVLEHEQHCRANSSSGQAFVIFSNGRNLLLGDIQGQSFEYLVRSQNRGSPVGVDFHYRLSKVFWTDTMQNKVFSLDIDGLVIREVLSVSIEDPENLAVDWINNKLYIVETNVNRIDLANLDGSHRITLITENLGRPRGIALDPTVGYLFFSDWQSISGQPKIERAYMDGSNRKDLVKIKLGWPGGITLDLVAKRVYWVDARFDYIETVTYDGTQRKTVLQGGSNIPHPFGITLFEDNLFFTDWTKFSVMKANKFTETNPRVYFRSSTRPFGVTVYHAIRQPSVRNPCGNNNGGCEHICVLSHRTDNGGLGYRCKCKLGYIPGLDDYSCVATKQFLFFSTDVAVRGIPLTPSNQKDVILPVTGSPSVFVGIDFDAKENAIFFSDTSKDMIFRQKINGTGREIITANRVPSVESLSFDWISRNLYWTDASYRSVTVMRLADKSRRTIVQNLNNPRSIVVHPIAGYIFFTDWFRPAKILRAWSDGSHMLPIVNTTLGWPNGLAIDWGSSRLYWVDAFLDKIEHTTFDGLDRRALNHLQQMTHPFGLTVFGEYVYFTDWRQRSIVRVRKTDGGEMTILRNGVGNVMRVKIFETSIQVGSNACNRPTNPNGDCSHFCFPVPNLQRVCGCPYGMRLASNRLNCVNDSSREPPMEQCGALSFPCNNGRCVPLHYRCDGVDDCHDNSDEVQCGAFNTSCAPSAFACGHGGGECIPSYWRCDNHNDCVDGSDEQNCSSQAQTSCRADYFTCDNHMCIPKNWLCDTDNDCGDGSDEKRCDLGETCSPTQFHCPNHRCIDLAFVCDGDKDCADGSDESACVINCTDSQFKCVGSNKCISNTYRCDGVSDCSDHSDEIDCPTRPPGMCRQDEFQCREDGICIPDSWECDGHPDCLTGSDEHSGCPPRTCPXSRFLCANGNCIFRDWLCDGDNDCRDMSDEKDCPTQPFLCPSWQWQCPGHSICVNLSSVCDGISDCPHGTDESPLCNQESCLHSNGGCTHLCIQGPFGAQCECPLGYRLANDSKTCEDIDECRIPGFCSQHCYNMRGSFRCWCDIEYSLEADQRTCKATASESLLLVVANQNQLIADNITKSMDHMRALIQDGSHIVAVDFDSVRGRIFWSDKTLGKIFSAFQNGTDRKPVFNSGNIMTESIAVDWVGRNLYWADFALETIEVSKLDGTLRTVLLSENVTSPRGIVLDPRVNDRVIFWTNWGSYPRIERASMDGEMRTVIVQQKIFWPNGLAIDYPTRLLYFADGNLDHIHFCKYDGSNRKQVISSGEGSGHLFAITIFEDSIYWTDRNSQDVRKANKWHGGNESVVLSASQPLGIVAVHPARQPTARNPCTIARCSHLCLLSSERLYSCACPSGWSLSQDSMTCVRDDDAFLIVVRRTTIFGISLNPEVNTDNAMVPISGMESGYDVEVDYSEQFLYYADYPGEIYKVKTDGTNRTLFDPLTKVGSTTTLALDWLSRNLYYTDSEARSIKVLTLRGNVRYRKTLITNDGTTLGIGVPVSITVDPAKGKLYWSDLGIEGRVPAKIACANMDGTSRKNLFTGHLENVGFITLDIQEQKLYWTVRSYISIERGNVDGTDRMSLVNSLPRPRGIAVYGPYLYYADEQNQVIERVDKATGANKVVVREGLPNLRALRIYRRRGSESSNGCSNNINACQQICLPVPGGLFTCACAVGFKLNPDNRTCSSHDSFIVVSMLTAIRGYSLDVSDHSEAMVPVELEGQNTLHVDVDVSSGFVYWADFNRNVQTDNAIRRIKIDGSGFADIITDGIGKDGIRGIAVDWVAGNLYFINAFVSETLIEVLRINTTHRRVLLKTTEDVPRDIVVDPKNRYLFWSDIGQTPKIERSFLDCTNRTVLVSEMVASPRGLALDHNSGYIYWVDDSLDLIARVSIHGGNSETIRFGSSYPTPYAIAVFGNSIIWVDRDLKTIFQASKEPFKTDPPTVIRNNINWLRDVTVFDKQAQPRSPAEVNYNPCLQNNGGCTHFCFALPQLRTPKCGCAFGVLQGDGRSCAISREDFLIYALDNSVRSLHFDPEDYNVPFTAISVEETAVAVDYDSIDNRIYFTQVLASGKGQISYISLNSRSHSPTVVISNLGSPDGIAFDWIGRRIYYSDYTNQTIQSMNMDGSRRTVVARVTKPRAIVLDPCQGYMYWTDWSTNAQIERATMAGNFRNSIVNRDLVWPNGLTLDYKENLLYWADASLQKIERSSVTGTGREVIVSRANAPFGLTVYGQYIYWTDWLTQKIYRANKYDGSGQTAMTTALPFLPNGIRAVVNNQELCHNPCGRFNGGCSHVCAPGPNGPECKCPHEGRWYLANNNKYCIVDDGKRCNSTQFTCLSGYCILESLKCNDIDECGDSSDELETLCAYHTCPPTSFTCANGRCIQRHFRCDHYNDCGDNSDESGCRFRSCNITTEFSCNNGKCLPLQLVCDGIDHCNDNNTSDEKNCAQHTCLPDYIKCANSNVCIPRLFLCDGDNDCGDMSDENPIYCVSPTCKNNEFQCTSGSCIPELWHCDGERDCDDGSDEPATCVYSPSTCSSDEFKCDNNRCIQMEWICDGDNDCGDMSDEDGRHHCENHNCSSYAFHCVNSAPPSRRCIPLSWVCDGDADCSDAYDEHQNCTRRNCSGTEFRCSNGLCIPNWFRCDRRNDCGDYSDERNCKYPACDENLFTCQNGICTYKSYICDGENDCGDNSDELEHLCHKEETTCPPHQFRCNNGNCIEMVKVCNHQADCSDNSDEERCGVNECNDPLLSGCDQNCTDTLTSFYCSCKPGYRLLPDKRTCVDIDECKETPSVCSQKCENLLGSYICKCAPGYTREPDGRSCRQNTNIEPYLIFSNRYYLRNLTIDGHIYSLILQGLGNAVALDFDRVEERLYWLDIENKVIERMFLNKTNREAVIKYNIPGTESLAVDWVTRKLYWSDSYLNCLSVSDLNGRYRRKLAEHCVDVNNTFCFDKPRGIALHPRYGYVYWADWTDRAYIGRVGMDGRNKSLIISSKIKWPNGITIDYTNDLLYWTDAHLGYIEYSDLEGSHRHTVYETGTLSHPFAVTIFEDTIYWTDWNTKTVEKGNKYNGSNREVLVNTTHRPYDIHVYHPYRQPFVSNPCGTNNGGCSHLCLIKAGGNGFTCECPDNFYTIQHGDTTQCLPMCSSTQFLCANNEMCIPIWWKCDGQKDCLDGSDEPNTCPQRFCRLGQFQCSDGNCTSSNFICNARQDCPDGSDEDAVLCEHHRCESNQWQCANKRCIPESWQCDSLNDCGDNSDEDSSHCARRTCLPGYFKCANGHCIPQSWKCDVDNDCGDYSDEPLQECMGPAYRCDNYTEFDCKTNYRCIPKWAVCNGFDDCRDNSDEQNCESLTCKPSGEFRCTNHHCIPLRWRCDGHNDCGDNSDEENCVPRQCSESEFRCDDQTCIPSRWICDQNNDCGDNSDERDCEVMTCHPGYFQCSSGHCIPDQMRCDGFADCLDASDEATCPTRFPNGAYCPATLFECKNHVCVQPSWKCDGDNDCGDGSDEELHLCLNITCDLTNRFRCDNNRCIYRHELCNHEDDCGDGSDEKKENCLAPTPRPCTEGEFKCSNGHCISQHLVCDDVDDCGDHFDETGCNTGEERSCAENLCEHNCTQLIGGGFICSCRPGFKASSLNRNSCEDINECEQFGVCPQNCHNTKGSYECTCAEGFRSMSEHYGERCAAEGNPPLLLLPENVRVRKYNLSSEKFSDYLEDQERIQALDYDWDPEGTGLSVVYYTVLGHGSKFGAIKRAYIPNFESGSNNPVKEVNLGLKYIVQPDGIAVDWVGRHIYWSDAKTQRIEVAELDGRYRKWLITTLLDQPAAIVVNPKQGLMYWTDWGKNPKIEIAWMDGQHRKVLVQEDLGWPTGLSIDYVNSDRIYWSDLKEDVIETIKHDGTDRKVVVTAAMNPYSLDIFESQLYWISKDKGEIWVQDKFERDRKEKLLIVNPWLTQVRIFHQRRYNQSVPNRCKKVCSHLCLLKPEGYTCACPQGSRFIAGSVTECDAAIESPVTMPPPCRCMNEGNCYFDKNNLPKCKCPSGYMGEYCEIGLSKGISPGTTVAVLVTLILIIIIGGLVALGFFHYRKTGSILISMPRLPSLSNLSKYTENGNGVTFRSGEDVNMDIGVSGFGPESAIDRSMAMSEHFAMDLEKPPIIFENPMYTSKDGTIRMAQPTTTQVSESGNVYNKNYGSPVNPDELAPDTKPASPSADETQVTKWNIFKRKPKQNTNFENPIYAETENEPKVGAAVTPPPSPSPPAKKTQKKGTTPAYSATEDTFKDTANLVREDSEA
Protocol: (§2) To directly address whether supra-physiological concentrations of dibasic amino-acids (dAAs) can interfere with binding of protein ligands to megalin, we used surface plasmon resonance. Sensor chips were derivatized with porcine megalin at high density. […] After flushing, chips were incubated with 10 µg/ml of three analytes: the megalin chaperone, RAP (receptor-associated protein), as positive control (not shown), or two physiological megalin ligands: transcobalamine:cobalamine complexes (TC:B12; Fig. 1; sensorgrams shown at Supplemental Fig. 1a) or lysozyme (Supplemental Fig. 1b), diluted in 0 to 100 mM of the same amino-acids in buffer. […] The supraphysiological range for effective competition in vitro defined the necessary increment in urinary concentration from dietary supplementation for significant competition in vivo.
Figure 1 Acellular assay: direct competition for transcobalamine:cobalamine binding to megalin immobilized on Biacore sensor chips. Signals of sensorgrams (shown in Supplemental Fig. 1) were normalized to control signal without AA supplementation, taken as the unity, and are means ± SEM of at least four independent technical duplicate values at each of the indicated amino-acid-concentrations.
(§3) Surface plasmon resonance (SPR) analysis of the binding to chip-immobilized megalin of receptor-associated protein (RAP), transcobalamine:cobalamine complex (TC:B12) and lysozyme was carried out using a Biacore T200 instrument (Uppsala, Sweden). The sensor chips (type CM5) were activated with a 1:1 mixture of 0.2 M N-ethyl-N′-(3-dimethylaminopropyl) carbodiimide and 0.05 M N-hydroxysuccinimide in H2O. Porcine megalin[49] was immobilized on the chip in 10 mM sodium acetate, pH 4.0, and the remaining binding sites were blocked with 1 M ethanolamine, pH 8.5. The SPR signal generated from immobilized megalin were obtained with a density of 4.5 fmol protein/mm^2.
(§4) Human RAP was produced as recombinant protein in E. coli[50] and used to validate the sensor chip. TC was purified and complexed with B12 as described (TC/B12)[50],[51]. Human recombinant lysozyme was purchased from Sigma-Aldrich (expressed in rice, # L1667). Sensorgrams were generated using each of these three ligands at 10 µg/ml in a running buffer consisting of 10 mM Hepes, 150 mM NaCl, 4 mM CaCl2 and 0.05% Tween 20, pH 7.4. The flow cells were regenerated with 1 M ethanolamine pH 9.0. Analyte testing was performed as a dual injection starting with running buffer supplemented with the defined concentrations of amino acids followed by injection of analyte in the same solution. The pH of all buffers was adjusted after amino acids addition. All binding experiments were made as at least independent triplicate of technical duplicates and data were analyzed using the Biacore T200 evaluation software version 3.1.

[6] = Urinary and serum amino-acid concentration by mass spectrometry in Ctns KO mice; assay type: in vivo
Protocol: as §1
Quantitative analysis of underivatized amino-acids in serum and urine samples was performed using the Amino Acids LC–MS/MS analysis Kit Jasem®. […] Equipment was controlled and data were analyzed using MassHunter Workstation (Agilent Technologies). The assay was validated for selectivity, specificity, linearity and limit of quantification, accuracy and precision, matrix effects and recovery, and stability.

Ctns KO mice liver = assay: Liver cystine content in Ctns KO mice; assay type: in vivo; settings: diet from 6-to-8 months-of-age
Protocol: In the second study to explore the effects of the D-lysine stereoisomer, Ctns KO mice received control vs 5x-D-lysine diet from 6-to-8 months-of-age. Mean kidney cystine value at 8 months-of-age under control diet was 109.4 ± 23.0 nmol hemi-cystine/mg kidney protein, slightly lower than in the first study.
Mice were euthanized by cabon dioxide (CO2) inhalation. Dissected tissues were homogenized in 10 mM N-ethylmaleimide. Protein fraction was obtained after precipitation in 10% 5-sulfosalicylic acid and centrifugation at 20,000g for 20 min at 4 °C. Protein pellet was resuspended in 100 mM NaOH and assayed by the Bio-Rad Protein Assay according to manufacturer’s instructions. Supernatant (50 μl) was mixed with 50 μL of the internal standard solution (Cystine d6) and vortexed for 5 s; then the mixture was extracted with 200 μl of acetonitrile, vortexed for at least 30 s, then centrifuged at 13,000 rpm for 9 min. Liquid chromatography and mass spectrometry analysis was performed by a UHPLC Agilent 1290 Infinity II 6470 (Agilent Technologies) equipped with an ESI-JET-STREAM source operating in the positive ion (ESI +) mode. Equipment was controlled and data were analyzed using MassHunter Workstation (Agilent Technologies). […] The assay was validated for selectivity, specificity, linearity and limit of quantification, accuracy and precision, matrix effects and recovery, and stability.

porcine megalin [7] = molecular target: T1, porcine megalin; assay: Surface plasmon resonance: competition for lysozyme binding to chip-immobilized megalin; settings: 10 µg/ml lysozyme in 0 to 100 mM amino-acid
Protocol: as §2, §3, §4

Ctns KO mice kidneys = assay: Kidney cystine content in Ctns KO mice; assay type: in vivo; settings: diet from 6-to-8 months-of-age
Protocol: For this pilot study, we selected tissue accumulation of cystine as a clear and measurable outcome to quantify long-term interference of dAAs with the endocytic supply of disulfide-rich plasma proteins to kidney PTCs.
Mice were euthanized by cabon dioxide (CO2) inhalation. Dissected tissues were homogenized in 10 mM N-ethylmaleimide. Protein fraction was obtained after precipitation in 10% 5-sulfosalicylic acid and centrifugation at 20,000g for 20 min at 4 °C. Protein pellet was resuspended in 100 mM NaOH and assayed by the Bio-Rad Protein Assay according to manufacturer’s instructions. Supernatant (50 μl) was mixed with 50 μL of the internal standard solution (Cystine d6) and vortexed for 5 s; then the mixture was extracted with 200 μl of acetonitrile, vortexed for at least 30 s, then centrifuged at 13,000 rpm for 9 min. Liquid chromatography and mass spectrometry analysis was performed by a UHPLC Agilent 1290 Infinity II 6470 (Agilent Technologies) equipped with an ESI-JET-STREAM source operating in the positive ion (ESI +) mode. Equipment was controlled and data were analyzed using MassHunter Workstation (Agilent Technologies). The separation column was InfinityLab Poroshell 120 HILIC 1.9 μm 100 × 2.1 mm (Agilent Technologies). Validation of the method was performed basing on the US Food and Drug Administration (FDA) guideline for industry bioanalytical method validation (FDA 2013) and European Medicines Agency (EMA) guideline (EMA 2011). The assay was validated for selectivity, specificity, linearity and limit of quantification, accuracy and precision, matrix effects and recovery, and stability.

[8] = Ctns KO mice at 8 months of age, 2 months of treatment, urine, mean ± SEM
[9] = read-out: IC50 for TC:B12/megalin interaction (mM; 95%CI)
[10] = Ctns KO mice at 8 months of age, 24-h urine, mean ± SEM
[11] = IC50 for TC:B12/megalin interaction (mM; 95%CI)

## NCCCC[C@@H](N)C(=O)O [5x-D-lysine, D-lysine]
Megalin pathway [1]
  increase of urinary excretion of CC16 (normalized for creatinine excretion): 20 fold
Megalin pathway [2]; Ctns KO female mice, diet from 6-to-8 months of age
  increase of microalbuminuria vs control diet: > twofold
Megalin pathway [2]; [8]
  Urine CC16/creatinine: 18,257 ± 1488 μg/g
  Urine microalbumin/creatinine: 0.5 ± 0.2 (n = 8) mg/g
[3]
  tolerance of prolonged diet: strong polyuria but no weight loss
[4]
  Body weight: 22.4 ± 0.3 g
[4]; serum
  Serum creatinine: 0.8 ± 0.1 mg/dL
  Serum cystatin-C: 723.3 ± 32.7 ng/mL
  Serum glucose: 172.4 ± 7.9 mg/dL
  Serum phosphate: 9.5 ± 0.4 mg/dL
  Serum urea: 43.2 ± 2.0 mg/dL
[4]; urine
  Daily creatinine output: 0.7 ± 0.1 mg/day
  Diuresis: 5.3 ± 0.8 mL/day
  Urine creatinine: 13.4 ± 1.2 mg/dL
  Urine glucose/creatinine: 54.4 ± 4.5 g/g
  Urine phosphate/creatinine: 4.8 ± 0.4 g/g
  Urine urea/creatinine: 181.8 ± 11.6 g/g
Porcine megalin [5]; [9]
  IC50: 22 mM
Porcine megalin [5]
  SPR signal of amino-acid alone on megalin chip: no signal was detected
[6]; [10]
  Urinary alanine: 1097 ± 106.5 mM/M creatinine
  Urinary arginine: 265 ± 27.5 mM/M creatinine
  Urinary cystine: 481.6 ± 32.8 mM/M creatinine
  Urinary glycine: 1066 ± 162 mM/M creatinine
  Urinary lysine: 123,851 ± 8548 mM/M creatinine
[6]; Ctns KO mice, daily urine collections
  urinary lysine concentration reached: ~ 150 mM
[6]; Ctns KO mice, vs control diet
  increase of argininuria: 12 fold
  increase of cystinuria: 7 fold
  increase of lysinuria: 2200 fold
Ctns KO mice liver
  liver cystine level at 8 months-of-age: did not affect
Porcine megalin [7]
  effect on megalin binding of lysozyme: concentration-dependent decrease
Ctns KO mice kidneys; Ctns KO female mice
  mean kidney cystine at 8 months-of-age: 44.6 ± 10.8 nmol hemi-cystine/mg kidney protein
Ctns KO mice kidneys; Ctns KO mice
  kidney cystine accumulation during the treatment period: probably fully arrested

## N=C(N)NCCC[C@H](N)C(=O)O [arginine]
Porcine megalin [5]; [11]
  IC50: ~60 mM

## NC(N)=NCCC[C@@H](N)C(=O)O [5x-D-arginine, D-arginine]
[3]
  tolerance of prolonged diet: weight loss and eventual high mortality
Porcine megalin [5]; [9]
  IC50: 60 mM
Porcine megalin [5]
  SPR signal of amino-acid alone on megalin chip: no signal was detected
Porcine megalin [7]
  effect on megalin binding of lysozyme: concentration-dependent decrease

## NCC(=O)O [glycine]
Porcine megalin [5]
  SPR signal of amino-acid alone on megalin chip: no signal was detected
Porcine megalin [5]; up to 100 mM
  effect on megalin:TC:B12 interaction: No detectable effect
Porcine megalin [7]
  effect on megalin binding of lysozyme: No detectable effect

## NCCCC[C@H](N)C(=O)O [lysine]
Porcine megalin [5]; [11]
  IC50: ~25 mM
